Test results reported in paper PMC11720353, “Clove Essential Oil as a Source of Antitumoral Compounds Capable of Crossing the Blood–Brain Barrier: A Focus on the Effects of β-Caryophyllene and Eugenol in a Glioblastoma Cell Line” (International Journal of Molecular Sciences, 2024).

Assays:
Assay type in all cases: cell-based, human
U87 cells = test: Quantitative real-time PCR of mRNA levels; conditions: 24 h
Description: (§1) An analysis of the genes involved in angiogenesis, tumor progression and proliferation were performed. In particular, we analyzed the genes involved in the cell cycle and in three different apoptotic pathways: B-cell lymphoma-2 (BCL2), Bcl-2-like protein 1 (BCL2L1), Bcl-2 Associated X-protein (BAX), BCL2 Antagonist/Killer 1 (BAK-1) and Caspase 9 (CASP9) as the key genes of the intrinsic mitochondrial pathway; and Phosphatase and tensin homolog (PTEN), Tumor protein p53 (TP53), Murine double minute 2 (MDM2), Cyclin-dependent kinase 4 (CDK4) and Vascular endothelial growth factor A (VEGFA) mRNA levels were assessed by quantitative real-time PCR (qRT-PCR). HMC3 and U87 cells were seeded with a density of 1 × 10^6 cells per well and incubated for 24 h at 37 °C and 5% CO2. Thereafter, the cells were treated either with EU (200 μM) or BCA (125 μM) alone and in combination (EU 200 μM + BCA 125 μM). Total RNA was extracted using the TripleXtractor solution (GRISP, Lisbon, Portugal) according to the manufacturer's protocol. RNA was converted into cDNA through the […] Synthesis Supermix (GRISP, Lisbon, Portugal). Each optimized reaction was performed using […] SYBR Green Mastermix 2X with […], Lisbon, Portugal) and subjected to the amplification protocol described by the manufacturer, using a melting temperature of 60 °C. The relative gene expression was determined by the 2^-ΔΔCt method and normalized on Glyceraldehyde-3-Phosphate Dehydrogenase (GAPDH), which was the endogenous reference and relative to the untreated cells (control condition).

HMC3 cells [1] = test: Quantitative real-time PCR of mRNA levels; conditions: 24 h
Description: as §1

HMC3 cells [2] = test: Cell death assay (Annexin V/PI, flow cytometry); conditions: EU 200 µM, BCA 125 µM, alone or in combination, 24 h
Description: HMC3 and U87 cells were seeded in duplicate into 12-well plates (10 × 10^4 cells/well). After 24 h of incubation at 37 °C and 5% CO2, the medium was replaced, and the cells were treated either with EU (200 µM) or BCA (125 µM), alone and in combination (EU 200 µM + BCA 125 µM). Following the 24 h treatment, the cells were co-stained with AV-APC and PI according to the manufacturer’s protocol (Biolegend, San Diego, CA, USA). Briefly, the cells were resuspended in binding buffer (100 µL) and incubated with AV-APC solution (5 µL) and PI solution (2 µL) for 15 min at room temperature. Then, the cells were diluted in a binding buffer (400 µL). A six-parameter, four-color FACSCalibur flow cytometer (Becton Dickinson, San Jose, CA, USA) was used, and at least 10,000 events were collected by acquisition using CellQuest software (Becton Dickinson, San Jose, CA, USA). The results were analyzed with the Paint-a-Gate software and expressed in percentage (%).

[3] = EU 200 µM, BCA 125 µM, alone or in combination

C=C1CC/C=C(\C)CC[C@@H]2[C@@H]1CC2(C)C [BCA, β-Caryophyllene]
PTEN mRNA expression, change vs control (U87 cells; EU 200 µM or BCA 125 µM): +171.8%
BAK1 mRNA expression, change vs control (U87 cells; [3]): +129.6%
BAX mRNA expression, change vs control (U87 cells; [3]): +35.0%
BCL2L1 mRNA expression, change vs control (U87 cells; [3]): −42.2%
BCL2 mRNA expression, change vs control (U87 cells; [3]): −54.8%
CASP9 mRNA expression, change vs control (U87 cells; [3]): +98.5%
MDM2 mRNA expression, change vs control (U87 cells; [3]): −49.3%
TP53 mRNA expression, change vs control (U87 cells; [3]): +506.4%
VEGFA mRNA expression, change vs control (U87 cells; [3]): −56.5%
CDK4 mRNA levels, change vs control (U87 cells; EU 200 µM, BCA 125 µM, alone or in combination, normalized to GAPDH): no effects
PTEN mRNA expression, change vs control (HMC3 cells [1]; EU 200 µM or BCA 125 µM): no effect
BAK1 mRNA expression, change vs control (HMC3 cells [1]; [3]): +59.8%
BCL2 mRNA expression, change vs control (HMC3 cells [1]; [3]): −56.2%
CDK4 mRNA levels, change vs control (HMC3 cells [1]; [3]): no effects
MDM2 mRNA expression, change vs control (HMC3 cells [1]; [3]): +34.2%
TP53 mRNA expression, change vs control (HMC3 cells [1]; [3]): +155.5%
VEGFA mRNA expression, change vs control (HMC3 cells [1]; [3]): −57%
cell viability (HMC3 cells [2]): did not affect
